Like-named read-outs stand apart in the source and are kept apart here.
System: primary rat mixed cortical cells
Test: In vitro myelination assay (MBP positive myelin strands, fold myelin pixels above background)
Assay type: cell-based
Settings: for fold induction at 1 µM / fold induction at 10 µM: Rattus norvegicus
In short: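 Myelination read as total MBP-immunopositive strand pixels per well, imaged at 10× after fixation on day 14 and expressed relative to untreated wells, at 1.0 and 10.0 μM. Cells: dissociated postnatal day 1 rat cortex, cultured two weeks with compound, re-dosed at days 6 and 10.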

[1] = 1.0 μM compound, relative to baseline of no added compound, read-out: Fold myelin pixels above background, 1.0 μM
[2] = 10.0 μM compound, relative to baseline of no added compound, read-out: Fold myelin pixels above background, 10.0 μM
[3] = 1.0 μM compound, relative to baseline of no added compound, read-out: Fold myelin pixels above background
[4] = 10.0 μM compound, relative to baseline of no added compound, read-out: Fold myelin pixels above background
[5] = 1.0 μM compound, read-out: Fold myelin pixels above background relative to baseline of no added compound
[6] = 10.0 μM compound, read-out: Fold myelin pixels above background relative to baseline of no added compound

## Cc1cc(Nc2ncn(-c3cccc(F)c3)n2)cc(NC2CCN(C3COC3)C2)c1 (stereo not drawn) [Compound 188, N3-[1-(3-fluorophenyl)-1,2,4-triazol-3-yl]-5-methyl-N1-[1-(oxetan-3-yl)pyrrolidin-3-yl]benzene-1,3-diamine]
[1]
  fold induction at 1 µM: 100 to 1000
[2]
  fold induction at 10 µM: ≤ 1

## Cc1cc(Nc2ncn(-c3cc(F)cc(F)c3)n2)nc(N2CCC(C)(O)CC2)c1 [Compound 569, 1-[6-[[1-(3,5-difluorophenyl)-1,2,4-triazol-3-yl]amino]-4-methyl-2-pyridyl]-4-methyl-piperidin-4-ol]
[3]
  fold induction at 1 µM: 1 to 10
[4]
  fold induction at 10 µM: 10 to 100

## Cc1cc(Nc2ncn(-c3ccc(OC(F)(F)F)cc3)n2)cc(N2CCN(C3COC3)CC2)c1 [Compound 478, N-[3-methyl-5-[4-(oxetan-3-yl)piperazin-1-yl]phenyl]-1-[4-(trifluoromethoxy)phenyl]-1,2,4-triazol-3-amine]
[3]
  fold induction at 1 µM: 1 to 10
[4]
  fold induction at 10 µM: 1 to 10

## COc1cc(OC)cc(-n2cnc(Nc3cc(C4CC4)nc(N4CCOCC4)c3)n2)c1 [Compound 210, 2-cyclopropyl-N-[1-(3,5-dimethoxyphenyl)-1,2,4-triazol-3-yl]-6-morpholino-pyridin-4-amine]
[1]
  fold induction at 1 µM: ≤ 1
[2]
  fold induction at 10 µM: 100 to 1000

## Cc1cc(Nc2ncn(-c3cc(F)cc(F)c3)n2)cc(N2CCC(OCCN(C)C)CC2)c1 [Compound 933, 1-(3,5-difluorophenyl)-N-[3-[4-[2-(dimethylamino)ethoxy]-1-piperidyl]-5-methyl-phenyl]-1,2,4-triazol-3-amine]
[5]
  fold induction at 1 µM: 1 to 10
[6]
  fold induction at 10 µM: ≤ 1

## Cc1cc(Nc2ncn(-c3ccc(F)c(F)c3)n2)cc(N2CC(N3CCOCC3)C2)c1 [Compound 720, 1-(3,4-difluorophenyl)-N-[3-methyl-5-(3-morpholinoazetidin-1-yl)phenyl]-1,2,4-triazol-3-amine]
[3]
  fold induction at 1 µM: 1 to 10
[4]
  fold induction at 10 µM: 10 to 100

## Cc1cc(Nc2ncn(-c3cc(F)cc(F)c3)n2)nc(N2CCN([C@H]3CCOC3)CC2)c1 (single isomer, unassigned) [Compound 673]
[3]
  fold induction at 1 µM: 10 to 100
[4]
  fold induction at 10 µM: 100 to 1000

## Cc1cc(Nc2ncn(-c3cccc(F)c3)n2)c(F)c(OC2CCOC2)c1 (single isomer, unassigned) [Compound 886, N-(2-fluoro-5-methyl-3-tetrahydrofuran-3-yloxy-phenyl)-1-(3-fluorophenyl)-1,2,4-triazol-3-amine]
1.0 μM compound
  Fold myelin pixels above background relative to baseline of no added compound: ++ (>10 to 100x)
10.0 μM compound
  Fold myelin pixels above background relative to baseline of no added compound: + (>1 to 10x)

## CCc1cc(Nc2ncn(-c3ccc(F)c(F)c3)n2)cc(N2CCN(C3COC3)CC2)c1 [Compound 69, 1-(3,4-difluorophenyl)-N-[3-ethyl-5-[4-(oxetan-3-yl)piperazin-1-yl]phenyl]-1,2,4-triazol-3-amine]
[1]
  fold induction at 1 µM: 1000 to 10000
[2]
  fold induction at 10 µM: 10 to 100

## Cc1cc(Nc2ncn(-c3cc(F)cc(F)c3)n2)cc(N2CCC(C3CCOC3)C2)c1 (stereo not drawn) [Compound 1083, 1-(3,5-difluorophenyl)-N-[3-methyl-5-(3-tetrahydrofuran-3-ylpyrrolidin-1-yl)phenyl]-1,2,4-triazol-3-amine]
[5]
  fold induction at 1 µM: 1 to 10
[6]
  fold induction at 10 µM: ≤ 1

## Cc1cc(Nc2ncn(-c3cc(F)cc(F)c3)n2)cc(N2CC3CCC(C2)O3)c1 [Compound 692, 1-(3,5-difluorophenyl)-N-[3-methyl-5-(8-oxa-3-azabicyclo[3.2.1]octan-3-yl)phenyl]-1,2,4-triazol-3-amine]
[3]
  fold induction at 1 µM: 10 to 100
[4]
  fold induction at 10 µM: 10 to 100

## Cc1cc(Nc2ncn(-c3ccccc3)n2)cc(N2CCN(C3CCCC3)CC2)c1 [Compound 87, N-[3-(4-cyclopentylpiperazin-1-yl)-5-methyl-phenyl]-1-phenyl-1,2,4-triazol-3-amine]
[1]
  fold induction at 1 µM: 100 to 1000
[2]
  fold induction at 10 µM: 100 to 1000

## Fc1cc(F)cc(-n2cnc(Nc3cc(C4CC4)cc(N4CCN(C5COC5)CC4)c3)n2)c1 [Compound 389, N-(3-cyclopropyl-5-(4-(oxetan-3-yl)piperazin-1-yl)phenyl)-1-(3,5-difluorophenyl)-1H-1,2,4-triazol-3-amine]
[3]
  fold induction at 1 µM: 1000 to 10000
[4]
  fold induction at 10 µM: ≤ 1

## Cc1cc(Nc2ncn(-c3ccnc(O)c3)n2)cc(N2CCOCC2)c1 [Compound 155, 4-[3-(3-methyl-5-morpholino-anilino)-1,2,4-triazol-1-yl]pyridin-2-ol]
[1]
  fold induction at 1 µM: 100 to 1000
[2]
  fold induction at 10 µM: 100 to 1000

## CCC1CCCN1c1cc(F)cc(-n2cnc(Nc3cc(C)cc(N4CCN(C5COC5)CC4)c3)n2)c1 (stereo not drawn) [Compound 103, 1-[3-(2-ethylpyrrolidin-1-yl)-5-fluoro-phenyl]-N-[3-methyl-5-[4-(oxetan-3-yl)piperazin-1-yl]phenyl]-1,2,4-triazol-3-amine]
[1]
  fold induction at 1 µM: 100 to 1000
[2]
  fold induction at 10 µM: ≤ 1

## Cc1cc(Nc2ncn(-c3ccccc3)n2)cc(N2CCCN(C)CC2)c1 [Compound 179, N-[3-methyl-5-(4-methyl-1,4-diazepan-1-yl)phenyl]-1-phenyl-1,2,4-triazol-3-amine]
[1]
  fold induction at 1 µM: 100 to 1000
[2]
  fold induction at 10 µM: ≤ 1

## CCCc1cc(Nc2ncn(-c3cnccn3)n2)cc(N2CCN(C3COC3)CC2)c1 [Compound 236, N-[3-[4-(oxetan-3-yl)piperazin-1-yl]-5-propyl-phenyl]-1-pyrazin-2-yl-1,2,4-triazol-3-amine]
[1]
  fold induction at 1 µM: ≤ 1
[2]
  fold induction at 10 µM: ≤ 1

## CCc1cc(Nc2ncn(-c3ccnc(SC)n3)n2)cc(N2CCN(C3COC3)CC2)c1 [Compound 132, N-[3-ethyl-5-[4-(oxetan-3-yl)piperazin-1-yl]phenyl]-1-(2-methylsulfanylpyrimidin-4-yl)-1,2,4-triazol-3-amine]
[1]
  fold induction at 1 µM: 1 to 10
[2]
  fold induction at 10 µM: 1 to 10

## CCC1CN(CCNc2cc(C)cc(Nc3ncn(-c4cc(F)cc(F)c4)n3)c2)CCO1 (stereo not drawn) [Compound 917, N3-[1-(3,5-difluorophenyl)-1,2,4-triazol-3-yl]-N1-[2-(2-ethylmorpholin-4-yl)ethyl]-5-methyl-benzene-1,3-diamine]
[5]
  fold induction at 1 µM: 10 to 100
[6]
  fold induction at 10 µM: ≤ 1

## Cc1cc(Nc2ncn(-c3cc(F)cc(F)c3)n2)cc(N2CC(NCCO)C2)c1 [Compound 791, 2-[[1-[3-[[1-(3,5-difluorophenyl)-1,2,4-triazol-3-yl]amino]-5-methyl-phenyl]azetidin-3-yl]amino]ethanol]
[5]
  fold induction at 1 µM: 10 to 100
[6]
  fold induction at 10 µM: ≤ 1

## Cc1cc(Nc2ncn(-c3cc(F)cc(F)c3)n2)cc(N2CC(N3CCOC4(CC4)C3)C2)c1 [Compound 586, 1-(3,5-difluorophenyl)-N-[3-methyl-5-[3-(4-oxa-7-azaspiro[2.5]octan-7-yl)azetidin-1-yl]phenyl]-1,2,4-triazol-3-amine]
[3]
  fold induction at 1 µM: 10 to 100
[4]
  fold induction at 10 µM: 10 to 100

## Cc1cc(Nc2ncn(-c3cc(F)cc(F)c3)n2)cc(N2CCCC2CS(C)(=O)=O)c1 (stereo not drawn) [Compound 1051, 1-(3,5-difluorophenyl)-N-[3-methyl-5-[2-(methylsulfonylmethyl)pyrrolidin-1-yl]phenyl]-1,2,4-triazol-3-amine]
[5]
  fold induction at 1 µM: 10 to 100
[6]
  fold induction at 10 µM: 1 to 10

## Fc1ccc(-n2cnc(Nc3cc(F)cc(N4CCOCC4)c3)n2)cc1 [Compound 394, N-(3-fluoro-5-morpholino-phenyl)-1-(4-fluorophenyl)-1,2,4-triazol-3-amine]
[3]
  fold induction at 1 µM: 1 to 10
[4]
  fold induction at 10 µM: ≤ 1

## Fc1cc(Nc2ncn(-c3ccc(F)cc3F)n2)cc(N2CCOCC2)c1 [Compound 321, 1-(2,4-difluorophenyl)-N-(3-fluoro-5-morpholino-phenyl)-1,2,4-triazol-3-amine]
[1]
  fold induction at 1 µM: 1 to 10
[2]
  fold induction at 10 µM: ≤ 1

## Cc1cc(Nc2ncn(-c3ccncn3)n2)cc(N2CCN(C3COC3)CC2)c1 [Compound 174, N-[3-methyl-5-[4-(oxetan-3-yl)piperazin-1-yl]phenyl]-1-pyrimidin-4-yl-1,2,4-triazol-3-amine]
[1]
  fold induction at 1 µM: 1 to 10
[2]
  fold induction at 10 µM: 10 to 100

## COc1ccc(-n2cnc(Nc3cc(C)cc(N4CC(N5CCOCC5)C4)c3)n2)cc1F [Compound 735, 1-(3-fluoro-4-methoxy-phenyl)-N-[3-methyl-5-(3-morpholinoazetidin-1-yl)phenyl]-1,2,4-triazol-3-amine]
[3]
  fold induction at 1 µM: 1 to 10
[4]
  fold induction at 10 µM: 1 to 10

## FC(F)c1cc(Nc2ncn(-c3ccccc3)n2)cc(N2CCNCC2)c1 [Compound 62, N-[3-(difluoromethyl)-5-piperazin-1-yl-phenyl]-1-phenyl-1,2,4-triazol-3-amine]
[1]
  fold induction at 1 µM: 1000 to 10000
[2]
  fold induction at 10 µM: ≤ 1

## Cc1cc(Nc2ncn(-c3cc(F)cc(F)c3)n2)cc(NC2CCCC2N2CCOCC2)c1 (stereo not drawn) [Compound 912, N3-[1-(3,5-difluorophenyl)-1,2,4-triazol-3-yl]-5-methyl-N1-(2-morpholinocyclopentyl)benzene-1,3-diamine]
[5]
  fold induction at 1 µM: 1 to 10
[6]
  fold induction at 10 µM: 1 to 10

## Cc1cc(Nc2ncn(-c3ccccc3)n2)cc(N2CCC(C#N)CC2)c1 [Compound 142, 1-[3-methyl-5-[(1-phenyl-1,2,4-triazol-3-yl)amino]phenyl]piperidine-4-carbonitrile]
[1]
  fold induction at 1 µM: 1000 to 10000
[2]
  fold induction at 10 µM: 100 to 1000

## Cc1cc(Nc2ncn(-c3cc(F)cc(F)c3)n2)cc(N2CCNCC2)c1 [Compound 77, 1-(3,5-difluorophenyl)-N-(3-methyl-5-piperazin-1-yl-phenyl)-1,2,4-triazol-3-amine]
[1]
  fold induction at 1 µM: 100 to 1000
[2]
  fold induction at 10 µM: ≤ 1

From patent US10766869B2, “Triazoles for the treatment of demyelinating dieases” (Vertex Pharmaceuticals Incorporated, priority 2015, dated 2020)
